Experimental data published in patent publication US10987359B2, “Oxadiazepinone derivatives and methods of treating hepatitis B infections” (priority 2016, dated 2021).

Each compound was assayed on HBV (assay: HBV replication inhibition assay (BDNA assay) in HepG2.2.15 cells). Conditions: HBV replication assay (BDNA assay), HepG2.2.15 cells; read-out: DNA EC50.
Assay type: cell-based
Procedure, shortened: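 Supernatant encapsidated HBV DNA was measured by bDNA after DNase digestion and proteinase K release. Stably HBV-integrated HepG2.2.15 cells had two 3-day compound exposures (0.5% DMSO). Signals were background-subtracted and normalized to DMSO wells, and EC50 was obtained by four-parameter fit.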
In the case of `C[C@@H]1Cc2nn3c(c2CN1C(=O)Nc1ccc(F)c(C#N)c1F)C(=O)N(C)OC(C(=O)N(C)CC(F)F)C3` (stereo in doubt) [Compound 153_D1, (4S*,9R)—N10-(3-cyano-2,4-difluorophenyl)-N4-(2,2-difluoroethyl)-N4,2,9-trimethyl-1-oxo-1,4,5,8,9,11-hexahydropyrido[4′,3′:3,4]pyrazolo[5,1-d][1,2,5]oxadiazepine-4,10(2H)-dicarboxamide], the EC50 is reported as 100 to 500 nM.
Compound `C[C@@H]1Cc2nn3c(c2CN1C(=O)Nc1ccc(F)c(C#N)c1F)C(=O)N(C)OC(C(=O)N(C)CC(F)F)C3` (stereo in doubt) [Compound 153_D2, (4R*,9R)—N10-(3-cyano-2,4-difluorophenyl)-N4-(2,2-difluoroethyl)-N4,2,9-trimethyl-1-oxo-1,4,5,8,9,11-hexahydropyrido[4′,3′:3,4]pyrazolo[5,1-d][1,2,5]oxadiazepine-4,10(2H)-dicarboxamide] has an EC50 of 1 to 100 nM.
In the case of `C[C@@H]1Cc2nn3c(c2CN1C(=O)Nc1cc(Cl)c(F)cc1F)C(=O)N(C)OC(C(=O)N(C)CC(F)F)C3` (stereo in doubt) [Compound 154_D1, (4S*,9R)—N10-(5-chloro-2,4-difluorophenyl)-N4-(2,2-difluoroethyl)-N4,2,9-trimethyl-1-oxo-1,4,5,8,9,11-hexahydropyrido[4′,3′:3,4]pyrazolo[5,1-d][1,2,5]oxadiazepine-4,10(2H)-dicarboxamide], the EC50 is reported as 500 to 1000 nM.
`C[C@@H]1Cc2nn3c(c2CN1C(=O)Nc1cc(Cl)c(F)cc1F)C(=O)N(C)OC(C(=O)N(C)CC(F)F)C3` (stereo in doubt) [Compound 154_D2, (4R*,9R)—N10-(5-chloro-2,4-difluorophenyl)-N4-(2,2-difluoroethyl)-N4,2,9-trimethyl-1-oxo-1,4,5,8,9,11-hexahydropyrido[4′,3′:3,4]pyrazolo[5,1-d][1,2,5]oxadiazepine-4,10(2H)-dicarboxamide] gave an EC50 of 1 to 100 nM.
In the case of `C[C@@H]1Cc2nn3c(c2CN1C(=O)Nc1ccc(F)c(C#N)c1)C(=O)N(C)OC(C(=O)N(C)CC(F)F)C3` (stereo in doubt) [Compound 155_D1, (4S*,9R)—N10-(3-cyano-4-fluorophenyl)-N4-(2,2-difluoroethyl)-N4,2,9-trimethyl-1-oxo-1,4,5,8,9,11-hexahydropyrido[4′,3′:3,4]pyrazolo[5,1-d][1,2,5]oxadiazepine-4,10(2H)-dicarboxamide], the EC50 is reported as 500 to 1000 nM.
Compound `C[C@@H]1Cc2nn3c(c2CN1C(=O)Nc1ccc(F)c(C#N)c1)C(=O)N(C)OC(C(=O)N(C)CC(F)F)C3` (stereo in doubt) [Compound 155_D2, (4R*,9R)—N10-(3-cyano-4-fluorophenyl)-N4-(2,2-difluoroethyl)-N4,2,9-trimethyl-1-oxo-1,4,5,8,9,11-hexahydropyrido[4′,3′:3,4]pyrazolo[5,1-d][1,2,5]oxadiazepine-4,10(2H)-dicarboxamide] has an EC50 of 1 to 100 nM.
`C[C@@H]1Cc2nn3c(c2CN1C(=O)Nc1ccc(F)c(C#N)c1)C(=O)N(C)OC(CNCC(F)F)C3` (stereo in doubt) [Compound 183_D2, (4R*,9R)—N-(3-cyano-4-fluorophenyl)-4-(((2,2-difluoroethyl)amino)methyl)-2,9-dimethyl-1-oxo-1,4,5,8,9,11-hexahydropyrido[4′,3′:3,4]pyrazolo[5,1-d][1,2,5]oxadiazepine-10(2H)-carboxamide] was tested, and the EC50 was 1 to 100 nM.
Compound `C[C@@H]1Cc2nn3c(c2CN1C(=O)Nc1ccc(F)c(Br)c1)C(=O)N(C)OC(CNCC(F)F)C3` (stereo in doubt) [Compound 184_D2, (4R*,9R)—N-(3-bromo-4-fluorophenyl)-4-(((2,2-difluoroethyl)amino)methyl)-2,9-dimethyl-1-oxo-1,4,5,8,9,11-hexahydropyrido[4′,3′:3,4]pyrazolo[5,1-d][1,2,5]oxadiazepine-10(2H)-carboxamide] has an EC50 of 1 to 100 nM.
`Cc1cc(NC(=O)N2Cc3c(nn4c3C(=O)N(C)OC(CNCC(F)F)C4)C[C@H]2C)ccc1F` (stereo in doubt) [Compound 185_D2, (4R*,9R)-4-(((2,2-difluoroethyl)amino)methyl)-N-(4-fluoro-3-methylphenyl)-2,9-dimethyl-1-oxo-1,4,5,8,9,11-hexahydropyrido[4′,3′:3,4]pyrazolo[5,1-d][1,2,5]oxadiazepine-10(2H)-carboxamide] showed an EC50 of 1 to 100 nM.

Same assay, conditions: Hepatitis B virus, HepG2.2.15, HBV replication assay (BDNA assay), HepG2.2.15 cells; read-out: DNA EC50
`C[C@@H]1Cc2nn3c(c2CN1C(=O)Nc1ccc(F)c(Cl)c1F)C(=O)N(C)OC(C(=O)N(C)CC(F)F)C3` (stereo in doubt) [Compound 152_D2, (4R*,9R)—N10-(3-chloro-2,4-difluorophenyl)-N4-(2,2-difluoroethyl)-N4,2,9-trimethyl-1-oxo-1,4,5,8,9,11-hexahydropyrido[4′,3′:3,4]pyrazolo[5,1-d][1,2,5]oxadiazepine-4,10(2H)-dicarboxamide] showed an EC50 of 1 to 100 nM.
With `CNC(=O)C1Cn2nc3c(c2C(=O)N(C)O1)CN(C(=O)Nc1ccc(F)c(C#N)c1F)[C@H](C)C3` (stereo in doubt) [Compound 156_D2, (4R*,9R)—N10-(3-cyano-2,4-difluorophenyl)-N4,2,9-trimethyl-1-oxo-1,4,5,8,9,11-hexahydropyrido[4′,3′:3,4]pyrazolo[5,1-d][1,2,5]oxadiazepine-4,10(2H)-dicarboxamide] the EC50 was 1 to 100 nM.
For `C[C@@H]1Cc2nn3c(c2CN1C(=O)Nc1ccc(F)c(C#N)c1)C(=O)N(C)OC(CNCC(F)F)C3` (stereo in doubt) [Compound 183_D1, (4S*,9R)—N-(3-cyano-4-fluorophenyl)-4-(((2,2-difluoroethyl)amino)methyl)-2,9-dimethyl-1-oxo-1,4,5,8,9,11-hexahydropyrido[4′,3′:3,4]pyrazolo[5,1-d][1,2,5]oxadiazepine-10(2H)-carboxamide], the EC50 was 1 to 100 nM.
With `C[C@@H]1Cc2nn3c(c2CN1C(=O)Nc1ccc(F)c(Br)c1)C(=O)N(C)OC(CNCC(F)F)C3` (stereo in doubt) [Compound 184_D1, (4S*,9R)—N-(3-bromo-4-fluorophenyl)-4-(((2,2-difluoroethyl)amino)methyl)-2,9-dimethyl-1-oxo-1,4,5,8,9,11-hexahydropyrido[4′,3′:3,4]pyrazolo[5,1-d][1,2,5]oxadiazepine-10(2H)-carboxamide] the EC50 was 1 to 100 nM.
With `Cc1cc(NC(=O)N2Cc3c(nn4c3C(=O)N(C)OC(CNCC(F)F)C4)C[C@H]2C)ccc1F` (stereo in doubt) [Compound 185_D1, (4S*,9R)-4-(((2,2-difluoroethyl)amino)methyl)-N-(4-fluoro-3-methylphenyl)-2,9-dimethyl-1-oxo-1,4,5,8,9,11-hexahydropyrido[4′,3′:3,4]pyrazolo[5,1-d][1,2,5]oxadiazepine-10(2H)-carboxamide] the EC50 was 1 to 100 nM.
`CN1O[C@H](CNCC(F)F)Cn2nc3c(c2C1=O)CN(C(=O)Nc1ccc(F)c(C(F)(F)F)c1)CC3` (stereo in doubt) [Compound 194_E1, (S*)-4-4(2,2-difluoroethyl)amino)methyl)-N-(4-fluoro-3-(trifluoromethyl)phenyl)-2-methyl-1-oxo-1,4,5,8,9,11-hexahydropyrido[4′,3′:3,4]pyrazolo[5,1-d][1,2,5]oxadiazepine-10(2H)-carboxamide] was tested, and the EC50 was 1 to 100 nM.
`CN1OC(CO)Cn2nc3c(c2C1=O)CN(C(=O)Nc1cccc(Br)c1)CC3` (centres unmarked) [Compound 001, N-(3-bromophenyl)-4-(hydroxymethyl)-2-methyl-1-oxo-1,4,5,8,9,11-hexahydropyrido[4′,3′:3,4]pyrazolo[5,1-d][1,2,5]oxadiazepine-10(2H)-carboxamide] gave an EC50 of 1 to 100 nM.
For `Cc1cccc(NC(=O)N2CCc3nn4c(c3C2)C(=O)N(C)OC(CO)C4)c1` (centres unmarked) [Compound 002, 4-(hydroxymethyl)-2-methyl-1-oxo-N-(m-tolyl)-1,4,5,8,9,11-hexahydropyrido[4′,3′:3,4]pyrazolo[5,1-d][1,2,5]oxadiazepine-10(2H)-carboxamide], the EC50 was 1 to 100 nM.
Compound `CN1OC(CO)Cn2nc3c(c2C1=O)CN(C(=O)Nc1ccnc(Cl)c1F)CC3` (centres unmarked) [Compound 003, N-(2-chloro-3-fluoropyridin-4-yl)-4-(hydroxymethyl)-2-methyl-1-oxo-1,4,5,8,9,11-hexahydropyrido[4′,3′:3,4]pyrazolo[5,1-d][1,2,5]oxadiazepine-10(2H)-carboxamide] has an EC50 of 100 to 500 nM.
For `CN1OC(CO)Cn2nc3c(c2C1=O)CN(C(=O)Nc1cccc(Br)c1F)CC3` (centres unmarked) [Compound 004, N-(3-bromo-2-fluorophenyl)-4-(hydroxymethyl)-2-methyl-1-oxo-1,4,5,8,9,11-hexahydropyrido[4′,3′:3,4]pyrazolo[5,1-d][1,2,5]oxadiazepine-10(2H)-carboxamide], the EC50 was 1 to 100 nM.
With `CN1OC(CO)Cn2nc3c(c2C1=O)CN(C(=O)Nc1ccc(F)c(F)c1)CC3` (centres unmarked) [Compound 005, N-(3,4-difluorophenyl)-4-(hydroxymethyl)-2-methyl-1-oxo-1,4,5,8,9,11-hexahydropyrido[4′,3′:3,4]pyrazolo[5,1-d][1,2,5]oxadiazepine-10(2H)-carboxamide] the EC50 was 1 to 100 nM.
Compound `CN1OC(CO)Cn2nc3c(c2C1=O)CN(C(=O)Nc1cc(F)c(F)c(F)c1)CC3` (centres unmarked) [Compound 006, 4-(hydroxymethyl)-2-methyl-1-oxo-N-(3,4,5-trifluorophenyl)-1,4,5,8,9,11-hexahydropyrido[4′,3′:3,4]pyrazolo[5,1-d][1,2,5]oxadiazepine-10(2H)-carboxamide] has an EC50 of 1 to 100 nM.
In the case of `CN1OC(CO)Cn2nc3c(c2C1=O)CN(C(=O)Nc1ccc(F)c(Cl)c1F)CC3` (centres unmarked) [Compound 007, N-(3-chloro-2,4-difluorophenyl)-4-(hydroxymethyl)-2-methyl-1-oxo-1,4,5,8,9,11-hexahydropyrido[4′,3′:3,4]pyrazolo[5,1-d][1,2,5]oxadiazepine-10(2H)-carboxamide], the EC50 is reported as 1 to 100 nM.
`CN1OC(CO)Cn2nc3c(c2C1=O)CN(C(=O)Nc1cccc(C(F)(F)F)c1)CC3` (centres unmarked) [Compound 008, 4-(hydroxymethyl)-2-methyl-1-oxo-N-(3-(trifluoromethyl)phenyl)-1,4,5,8,9,11-hexahydropyrido[4′,3′:3,4]pyrazolo[5,1-d][1,2,5]oxadiazepine-10(2H)-carboxamide] showed an EC50 of 1 to 100 nM.
